The values that follow come from article PMC10915964, “Identifying ligands for the PHD1 finger of KDM5A through high-throughput screening†” (RSC Chemical Biology, 2023).

This series is described as follows: Solubility in the NMR buffer. The format is physicochemical. The settings on record: 1 mM in 50 mM HEPES pH 7.5, 150 mM KCl NMR buffer. As to the method:
The binding of the ChemBridge screen hits to PHD1 was further evaluated using 2D ^1H–^15N HSQC NMR spectroscopy. This direct binding method allowed us to monitor binding by observing any ligand-induced changes in the previously assigned ^1H–^15N PHD1 amino acid resonances.[12] The HSQC spectra of 50 μM ^15N-labeled PHD1 with DMSO were overlaid with the spectra of the ^15N-labeled PHD1 incubated with 1 mM compound. […] Compound 715 958 was insoluble in the NMR buffer at this concentration and was not evaluated.
The six NCI screen hits confirmed by dose response in the FP assay were further evaluated by 2D ^1H–^15N HSQC NMR at 1 mM to assess their direct binding to PHD1 (Fig. S5, ESI ^†). Compound 990 670 was insoluble in the NMR buffer and was excluded from further consideration. Out of the five compounds evaluated, 991 830, 990 856, and 988 385 caused very minor CSP on PHD1 (average shifts ≤ 0.002 ppm; Fig. S5a–c, ESI ^†). […] The observed perturbations are low, but in the range of those induced by competitive binding fragment ligands evaluated at 5 mM with the PHD finger of BAZ2B, for which the perturbations observed were up to 0.035 ppm.[19] Residue Cys322, one of the Zn(II) ligands in the first zinc finger in PHD1, is the most affected by the presence of oxazepine 516 969 (Δδ of 0.009 ppm; Fig. S5d, ESI ^†). […]

For the compound `Cc1ccc(N2CC(c3nnc(NC(=O)c4c(-c5ccccc5)noc4C)s3)CC2=O)cc1C` (stereo not shown) [990 670], the “solubility in the NMR buffer” value is “insoluble”.
